In the test the target is HPK1 (Homo sapiens, UniProt Q92918). Nature of the test: HPK1 Kinase Binding Assay. Particulars: LanthaScreen tracer 222, Eu-Anti GST antibody, active HPK1, one hour incubation at 25° C. The method, then:
A stock solution of 1 mM test compound was prepared in DMSO. The compound plate was prepared by 3-fold and 11-point serial dilutions. 0.1 μL of the compound in DMSO was transferred from the compound plate to the white 384 well polystyrene plates. The assay buffer contained 50 mM HEPES, pH 7.5, 0.01% Tween-20, 5 mM MgCl2, 0.01% BSA, and 5 mM DTT. 5 μl of 4 nM active HPK1 (SignalChem M23-11G) prepared in the buffer was added to the plate. The enzyme concentration given was based on the given stock concentration reported by the vender. 5 μl of 18 nM tracer 222 (ThermoFisher PV6121) and 4 nM LanthaScreen Eu-Anti GST antibody (ThermoFisher PV5595) were added. After one hour incubation at 25° C., the plates were read on a PHERAstar FS plate reader (BMG Labtech). Ki values were determined.

Each structure is given as a SMILES string. Some results are limits rather than exact numbers.

Usually Ki stands for a measure of affinity in units of concentration, obtained from inhibition or displacement. Low readings indicate a stronger hold on the target, high ones a looser hold on the target.

Sequence of HPK1 (Q92918 whole entry, looked up): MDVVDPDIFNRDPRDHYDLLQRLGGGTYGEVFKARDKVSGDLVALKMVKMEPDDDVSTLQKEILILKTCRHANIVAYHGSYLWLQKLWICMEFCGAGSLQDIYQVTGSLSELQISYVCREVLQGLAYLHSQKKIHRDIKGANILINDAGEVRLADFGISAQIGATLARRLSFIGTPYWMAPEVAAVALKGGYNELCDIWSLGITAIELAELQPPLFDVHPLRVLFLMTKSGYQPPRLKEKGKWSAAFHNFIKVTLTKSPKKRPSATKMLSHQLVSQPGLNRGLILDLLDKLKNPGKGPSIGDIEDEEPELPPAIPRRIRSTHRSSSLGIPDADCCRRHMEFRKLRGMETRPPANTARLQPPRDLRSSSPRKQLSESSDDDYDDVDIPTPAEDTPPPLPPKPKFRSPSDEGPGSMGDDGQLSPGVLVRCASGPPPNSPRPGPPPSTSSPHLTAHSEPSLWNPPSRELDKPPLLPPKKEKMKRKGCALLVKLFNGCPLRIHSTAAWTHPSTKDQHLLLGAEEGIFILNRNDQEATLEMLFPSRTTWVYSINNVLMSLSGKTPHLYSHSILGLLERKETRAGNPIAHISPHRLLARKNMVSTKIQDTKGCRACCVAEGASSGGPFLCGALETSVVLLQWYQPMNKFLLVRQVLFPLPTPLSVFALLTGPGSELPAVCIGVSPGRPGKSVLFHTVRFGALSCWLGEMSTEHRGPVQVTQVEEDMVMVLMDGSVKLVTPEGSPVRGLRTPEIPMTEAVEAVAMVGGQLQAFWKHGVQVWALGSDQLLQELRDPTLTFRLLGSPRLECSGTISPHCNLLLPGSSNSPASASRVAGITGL

The compound `CNCc1cc(F)c(-c2ncc3[nH]nc(-c4ccc(N5CCCCC5)nc4)c3n2)c(C(F)(F)F)c1` [Example 76, 1-(3-Fluoro-4-(3-(6-(piperidin-1-yl)pyridin-3-yl)-1H-pyrazolo[4,3-d]pyrimidin-5-yl)-5-(trifluoromethyl)phenyl)-N-methylmethanamine] yielded a Ki of no more than 100 nM.

`CNCc1cc(F)c(-c2ncc3[nH]nc(-c4ccc(NC5CCN(S(C)(=O)=O)CC5)cc4)c3n2)c(F)c1` [Example 72, 7V-(4-(5-(2,6-Difluoro-4-((methylamino)methyl)phenyl)-1H-pyrazolo[4,3-d]pyrimidin-3-yl)phenyl)-1-(methylsulfonyl)piperidin-4-amine] registered a Ki of no more than 100 nM.

With `CN1CCN(c2ncc(-c3n[nH]c4cnc(-c5c(F)cc(CC#N)cc5F)nc34)cn2)CC1` [Example 105, 2-(3,5-Difluoro-4-(3-(2-(4-methylpiperazin-1-yl)pyrimidin-5-yl)-1H-pyrazolo[4,3-d]pyrimidin-5-yl)phenyl)acetonitrile], the Ki was no more than 100 nM.
